SMILES strings stand for the structures. “Also recorded” adds a separate entry of the source. Some results are limits rather than exact numbers.

One test concerns PTPs in Rat-1 cells. Kind of test: modified in-gel PTP activity assay of Rat-1 cell lysates. The settings on record: for inactivation (oxidation) of PTPs in cells: 200 μM. It is filed as cell-based. From the text:
(§1) To determine whether ROS stimulated intracellular tyrosine phosphorylation through the oxidation and inhibition of cellular PTPs, a modified in-gel PTP activity assay was devised, as follows: As substrate, poly (4:1) Glu-Tyr (Sigma) was labeled with [γ-^32P]-ATP using the GST-FER fusion PTK, as described previously (Shen et al., 1998 J. Biol. Chem. 273:6474-81). The labeled substrates were used within three weeks to limit the variation of its specific activity from experiment to experiment. The lysis buffer (25 mM CH3COONa, 1% NP-40, 150 mM NaCl, 10% glycerol, pH 5.5) was degassed at 4° C. for overnight, before catalase and superoxide dismutase (both 100 μg/ml), protease inhibitors and 10 mM iodoacetic acid (IAA) were added. Following stimulation, cells were lysed under anaerobic conditions in an argon chamber. Lysates (25 μg) were processed as described herein and an “in-gel” phosphatase assay (Burridge and Nelson, 1995) was conducted using SDS-PAGE gels containing a radioactively-labeled substrate (1.5×10^6 cpm/20 ml gel solution, approximately 2 μM p-Tyr).
(§2) Cells were triggered with the appropriate stimulus and harvested under anaerobic conditions in lysis buffer containing IAA. Those PTPs that had not encountered ROS in the cell became irreversibly inactivated by alkylation of their active site Cys with IAA. However, in contrast, any PTPs in which the active site Cys had been oxidized in response to the stimulus were resistant to alkylation. For the “in-gel” phosphatase assay, a 10% SDS-PAGE gel was cast containing a radioactively-labeled substrate. An aliquot of cell lysate was subjected to SDS-PAGE and proteins in the gel were sequentially denatured, then renatured in the presence of reducing reagents. […] The reaction was then terminated by fixing, staining and destaining the gel. Finally the gel was dried and exposed to film. The presence of a PTP was visualized by substrate dephosphorylation, as the appearance of a clear, white area on the black background of labeled substrate.

The test system of the next test is MAPK. Kind of test: anti-phospho-MAPK / anti-MAPK immunoblot. It is filed as cell-based, Rat. The conditions noted are these: for activation of MAPKs (mitogenic signaling): 200 μM. How it is done:
(§3) For immunoprecipitation, cells were rinsed with ice-cold PBS, then lysed in ice-cold 20 mM Hepes (pH 7.5), 1% NP-40, 150 mM NaCl, 10% glycerol, 200 μM […] and protease inhibitors (25 μg/ml of aprotinin and leupeptin). […] The anti-pTyr antibody G104 was described previously (Garton et al., 1997 Oncogene 15, 877-885). Anti-PDGFRββ antibody (Ab-X) was a gift from Dr. Daniel DiMaio at Yale University (Irusta and DiMaio, 1998 EMBO J. 17, 6912-6923). Anti-human G-CSF receptor (G-CSFR) antibody was provided by Dr. Toshio Hirano at Osaka University, Japan (Fukada et al., 1996 Immunity 5, 449-460). Lysate (400 μg) was incubated with 5 μg of antibody conjugated to protein A/G-Sepharose (Amersham Pharmacia, Arlington Heights, Ill.) for 2 hours at 4° C. For immunoblotting, aliquots of total lysates (30 μg per sample) or immunoprecipitates were subjected to SDS-PAGE and transferred to nitrocellulose filters, which were incubated with appropriate primary and secondary antibodies and the specific signals were visualized by the ECL detection system (Amersham Pharmacia).
In general terms: Immunoblotting shows a protein as a band on a membrane.

The target in a further test is SHP-2 (E76A mutant) (Homo sapiens, UniProt Q06124, E76A). The class given is biochemical. The settings on record: for protection of SHP-2 from alkylation by IAA: 37° C. 5 mins, then 4 mM IAA.
Test [1] concerns intracellular ROS in Rat-1 cells. Kind of test: ROS-induced DCF fluorescence (microscopy, flow cytometry). The settings on record: for DCF fluorescence by fluorescence microscopy: 20 μM H2DCFDA preload, 200 μM, 5 mins; for shift of DCF fluorescence by flow cytometry, H2O2 versus t-BHP: 200 μM each. The class given is cell-based. As for the experimental part:
The effects of H2O2 and t-BHP on inactivation of PTPs and activation of MAPK signaling pathways were next compared in a cellular context. Intracellular ROS were measured using 2′,7′-dichlorofluorescein diacetate (H2DCFDA) and 5-(and-6)-chloromethyl-2′,7′-dichlorodihydrofluorescein diacetate (CM-H2DCFDA) (all fluorescent ROS indicators from Molecular Probes, Eugene, Oreg.) either by fluorescence microscopy, using a Zeiss Axiovert 405M inverted microscope equipped with a fluorescence attachment and digital camera, or by cell sorting, using a FACSCalibur System ([…].), according to the manufacturer's recommendations. Rat-1 cells were pre-loaded with 20 μM H2DCFDA in the dark for 20 mins, then exposed to H2O2 and t-BHP (both 200 μM) for 5 mins. Images of ROS-induced DCF fluorescence are shown at magnification 400× (FIG. 3B upper panel). Cells (1×10^5) that underwent the same treatment as above were harvested and resuspended in Hanks' solution, then immediately subjected to flow cytometric analysis to measure ROS-induced DCF fluorescence. The basal peak indicates background fluorescence, whereas the rightward shifted peak indicates ROS-induced DCF fluorescence (FIG. 3B, lower panels). […] Cells were exposed to H2O2 and t-BHP (each at 200 μM) for the indicated times, lysed in the presence of 10 mM IAA and oxidized PTPs were visualized in the in-gel PTP activity assay.
Rat-1 cells were incubated with 20 μM CM-H2DCFDA in the dark for 20 mins, then exposed to peptide growth factors (50 ng/ml) for an additional 10 mins. Images of ROS-induced DCF fluorescence are shown at 50× magnification. (FIG. 6A) The data are representative of 4 independent experiments. In FIG. 6B, Rat-1 cells were exposed to peptide growth factors for the indicated times, lysed in the presence of 10 mM IAA, and oxidized PTPs were visualized by the in-gel PTP assay. […] Aliquots of cell lysate from each treatment group were immunoblotted with anti-phospho-MAPK Ab and re-probed with anti-MAPK Ab.
(A flow cytometer gives signals particle by particle.)

Test [2] relates to tyrosine phosphorylation of cellular proteins in Rat-1 cells. The test is described as follows: immunoprecipitation (PT-66) and anti-pTyr (G104) immunoblot of tyrosine phosphorylated proteins. It is filed as cell-based. The conditions noted are these: for tyrosine phosphorylation of cellular proteins: 200 μM. How it is done:
as §3

Another test relates to PDGFR. The test is described as follows: PDGFR immunoprecipitation (Ab-X) and anti-pTyr immunoblot. The class given is cell-based, Rat. The settings on record: 30 mM NAC 40 minutes before PDGF 50 ng/ml. How it is done: as §3
A possible role of oxidation/inactivation of the 70 k PTP in regulating PDGFR-mediated signaling was next investigated by testing the effects of the antioxidant NAC. Cells were incubated for 40 minutes in the presence or absence of 30 mM NAC prior to PDGF stimulation. Excess NAC was removed prior to addition of PDGF (50 ng/ml). […]

A further test concerns the target T1, 70 kDa PTP (SHP-2) (Rattus norvegicus, UniProt P41499).
T1 construct: endogenous in cells; host or cells: Rat-1 fibroblasts
T1 sequence (P41499 1-593): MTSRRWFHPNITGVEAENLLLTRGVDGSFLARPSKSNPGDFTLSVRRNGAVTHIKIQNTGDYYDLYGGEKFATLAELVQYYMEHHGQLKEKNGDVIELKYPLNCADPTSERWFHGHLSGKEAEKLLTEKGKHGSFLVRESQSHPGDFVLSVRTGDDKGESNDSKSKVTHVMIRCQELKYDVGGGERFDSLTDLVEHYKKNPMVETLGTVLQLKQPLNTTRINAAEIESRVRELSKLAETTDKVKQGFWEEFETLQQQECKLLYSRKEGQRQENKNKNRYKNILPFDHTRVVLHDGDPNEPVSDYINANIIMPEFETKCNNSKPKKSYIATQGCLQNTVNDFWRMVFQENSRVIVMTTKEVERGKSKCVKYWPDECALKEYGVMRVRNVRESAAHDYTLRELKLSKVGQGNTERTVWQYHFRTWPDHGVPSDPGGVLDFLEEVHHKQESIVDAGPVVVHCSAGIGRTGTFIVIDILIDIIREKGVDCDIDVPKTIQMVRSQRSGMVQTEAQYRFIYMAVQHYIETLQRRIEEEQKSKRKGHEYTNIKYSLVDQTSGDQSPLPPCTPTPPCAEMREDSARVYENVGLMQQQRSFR
Kind of test: modified in-gel PTP assay, growth factor stimulated Rat-1 cells. It is filed as cell-based. The settings on record: 30 mM NAC 40 minutes before PDGF 50 ng/ml.
Text: as §1, §2
As described above, treatment of Rat-1 cells with H2O2 led to inactivation of multiple PTPs (FIGS. 2-3). […] Lysates of PDGF-stimulated Rat-1 cells were then analyzed using the modified in-gel PTP activity assay described above. […] Serum-starved Rat-1 cells were exposed to 50 ng/ml PDGF-BB for the times indicated (FIG. 4A). Lysates were prepared in the presence of 10 mM IAA and subjected to the in-gel PTP assay. […] The result shown is representative of four independent experiments. Oxidation of this 70 kDa PTP was reversible, reaching a maximum at 5 minutes, followed by marked reduction, almost to basal levels, within 20 minutes of PDGF treatment (FIG. 4A).
Rat-1 cells, either untreated (−) or stimulated with 50 ng/ml PDGF (+), were harvested in lysis buffer containing 10 mM IAA.

On to `CCCCS(=N)(=O)CCC(N)C(=O)O` [BSO, L-buthionine-SR-sulfoximine], for which the “effect on recovery of PTP activity following removal of H2O2” value in the test on PTPs in Rat-1 cells (2.5 mM BSO 16 h, 200 μM H2O2 for 2 minutes then removed) is on record as “markedly attenuated the recovery of PTP activity”. For the same compound, the “persistence of PTP oxidation after removal of H2O2” value in the test on PTPs in Rat-1 cells (BSO-pretreated Rat-1 cells) is no less than 30 min.

For the compound `OO` [H2O2, hydrogen peroxide], the “time to essentially complete recovery (reduction) of PTPs after removal of H2O2” value in the test with PTPs in Rat-1 cells (200 μM H2O2 for 2 minutes, no BSO) lay in the range of 10 to 20 min. The “inactivation (oxidation) of PTPs in cells” value in the test on PTPs in Rat-1 cells (lysis with 10 mM IAA) is “reproducible inactivation of PTPs was detected”. Moreover, in the test on PTPs in Rat-1 cells (1 min exposure, serum-deprived Rat-1 cells), the “H2O2 concentration sufficient to oxidize all PTPs detectable in the assay” value was found to be 200 µM. The “time to oxidation of active site Cys of various PTPs” value in the test with PTPs in Rat-1 cells (H2O2 added to culture media, lysis with 10 mM IAA) is no more than 1 min. Besides, in the test on MAPK, the “activation of MAPKs (mitogenic signaling)” value was “enhanced tyrosine phosphorylation and mitogenic signaling”. The “phosphorylation of ERK MAP kinases” value in the test on MAPK (H2O2-treated Rat-1 cells) is “triggered the phosphorylation of ERK MAP kinases”. Moreover, the “irreversible oxidation of SHP-2” value at SHP-2 (E76A mutant) (2 mM H2O2) is given as “not irreversibly oxidized”. Further, at SHP-2 (E76A mutant), the “protection of SHP-2 from alkylation by IAA” value is “protected SHP-2 from alkylation”. In test [1], the “DCF fluorescence by fluorescence microscopy” value is “led to rapid oxidation and the appearance of the fluorescent derivative, DCF”; the “shift of DCF fluorescence by flow cytometry, H2O2 versus t-BHP” value is given as “no quantitative difference was observed”. In addition, in test [2], the “tyrosine phosphorylation of cellular proteins” value is on record as “enhanced tyrosine phosphorylation”. Also, the “tyrosine phosphorylation of proteins of 120 kDa and 70 kDa” value in test [2] (various concentrations of H2O2) is “induced in a dose-dependent fashion”.

On to `CC(=O)N[C@@H](CS)C(=O)O` [NAC, N-acetyl cysteine], for which the “effect on ligand-induced tyrosine phosphorylation of the PDGFR” value with PDGFR was “greatly diminished”. Also, in the test with PTPs in Rat-1 cells (30 mM NAC preincubation 40 minutes, then 200 μM H2O2), the “effect on H2O2-induced PTP oxidation and inactivation” value is “blocked PTP oxidation and inactivation”. For the same compound, in the test with MAPK (30 mM NAC 40 minutes before PDGF 50 ng/ml), the “effect on PDGF-induced activation of MAPKs” value is recorded as “completely eliminated”. The “effect on PDGF-induced oxidation of the 70 k PTP” value at 70 kDa PTP (SHP-2) is “markedly attenuated; also recorded: impaired”.

For `CC(C)(C)OO` [t-BHP, t-butyl hydroperoxide], in the test with PTPs in Rat-1 cells (lysis with 10 mM IAA), the “inactivation (oxidation) of PTPs in cells” value was “not in response to t-BHP”. Moreover, the “activation of MAPKs (mitogenic signaling)” value with MAPK is “unable to activate MAPKs”. Further, the “protection of SHP-2 from alkylation by IAA” value on SHP-2 (E76A mutant) is given as “did not protect the invariant Cys residue of SHP-2 from alkylation”. Besides, the “oxidation and inactivation of SHP-2 in vitro” value on SHP-2 (E76A mutant) (purified SHP-2 (E76A)) was “unable to oxidize and inactivate SHP-2”. In test [1], the “DCF fluorescence by fluorescence microscopy” value was “led to rapid oxidation and the appearance of the fluorescent derivative, DCF”; the “shift of DCF fluorescence by flow cytometry, H2O2 versus t-BHP” value was “no quantitative difference was observed”. In addition, the “tyrosine phosphorylation of cellular proteins” value in test [2] is “less pronounced effects on tyrosine phosphorylation”.

(Values after patent publication US20030215899A1, “Reversible oxidation of protein tyrosine phosphatases” (CEPTYR, Inc., priority 2002, published 2003).)
